Values of other authors in US8440723B2, “Metformin salts of salicylic acid and its congeners” (priority 2011, dated 2013).
Values after ≈ are worked out from the molar mass of the structure shown.

Experiments:
[1] = The Merck Index, Eleventh Edition
[2] = tested on: patients with type 2 diabetes

| Compound | volume of water in which 1 g is soluble ([1]; 1 g of substance) | water solubility [1] | solubility in water (in words) [1] | effect on blood glucose, HbA1c, triglycerides, free fatty acid and C-reactive protein [2] |
| --- | --- | --- | --- | --- |
| O=C(O)c1ccccc1O [salicylic acid] | 460 mL | 2170 µg/mL (≈ 15.7 mM) |  |  |
| O=C(Oc1ccccc1C(=O)O)c1ccccc1O [salsalate, 2-(2-hydroxybenzoyl)oxybenzoic acid] |  |  | practically insoluble in water | lowers blood glucose, HbA1c levels, triglycerides, free fatty acid and C-reactive protein |
